The record followed here is patent publication US11147812B2, “Tyrosine analogues derivatives as Rho-kinase inhibitors” (Chiesi Farmaceutici S.p.A., priority 2017, dated 2021).

Experiment [1] has as its target Rho kinase 1 (ROCK1) (Homo sapiens, UniProt Q13464). The experiment in a line: In vitro Rho kinase inhibitory activity assay (ADP-Glo), ROCK1. The format is biochemical. Conditions: 10 μM ATP, 25° C., Ki by Cheng-Prusoff. As for the experimental part:
(§1) The effectiveness of compounds of the present invention to inhibit Rho kinase activity can be determined in a 10 μl assay containing 40 mM Tris pH7.5, 20 mM MgCl2 0.1 mg/ml BSA, 50 μM DTT and 2.5 μM peptide substrate (Myelin Basic Protein) using an ADP-Glo kit (Promega). Compounds were dissolved in DMSO such that the final concentration of DMSO was 1% in the assay. All reactions/incubations are performed at 25° C. Compound (2 ul) and either Rho kinase 1 or 2 (4 μl) were mixed and incubated for 30 mins. Reactions were initiated by addition of ATP (4 μl) such that the final concentration of ATP in the assay was 10 μM. After a 1 hour incubation 10 μl of ADP-Glo Reagent was added and after a further 45 minute incubation 20 ul of Kinase Detection Buffer was added and the mixture incubated for a further 30 minutes. The luminescent signal was measured on a luminometer. […] Compounds were tested in dose-response format and the inhibition of kinase activity was calculated at each concentration of compound. To determine the IC50 (concentration of compound required to inhibit 50% of the enzyme activity) data were fit to a plot of % inhibition vs Log10 compound concentration using a sigmoidal fit with a variable slope and fixing the maximum to 100% and the minimum to 0%. To determine the Ki values the Cheng-Prusoff equation was utilized (Ki=IC50/(1+[S]/Km)
On the technique in general: ADP-Glo first removes unused ATP, then detects ADP through luciferase.

Experiment [2] has as its target Rho kinase 2 (ROCK2) (Homo sapiens, UniProt O75116). In words: In vitro Rho kinase inhibitory activity assay (ADP-Glo), ROCK2. The format is biochemical. Conditions: 10 μM ATP, 25° C., Ki by Cheng-Prusoff. The protocol: as §1

Where only a bound is given, the exact number is not on record here.

Chain of Rho kinase 1 (ROCK1) (Q13464 whole entry): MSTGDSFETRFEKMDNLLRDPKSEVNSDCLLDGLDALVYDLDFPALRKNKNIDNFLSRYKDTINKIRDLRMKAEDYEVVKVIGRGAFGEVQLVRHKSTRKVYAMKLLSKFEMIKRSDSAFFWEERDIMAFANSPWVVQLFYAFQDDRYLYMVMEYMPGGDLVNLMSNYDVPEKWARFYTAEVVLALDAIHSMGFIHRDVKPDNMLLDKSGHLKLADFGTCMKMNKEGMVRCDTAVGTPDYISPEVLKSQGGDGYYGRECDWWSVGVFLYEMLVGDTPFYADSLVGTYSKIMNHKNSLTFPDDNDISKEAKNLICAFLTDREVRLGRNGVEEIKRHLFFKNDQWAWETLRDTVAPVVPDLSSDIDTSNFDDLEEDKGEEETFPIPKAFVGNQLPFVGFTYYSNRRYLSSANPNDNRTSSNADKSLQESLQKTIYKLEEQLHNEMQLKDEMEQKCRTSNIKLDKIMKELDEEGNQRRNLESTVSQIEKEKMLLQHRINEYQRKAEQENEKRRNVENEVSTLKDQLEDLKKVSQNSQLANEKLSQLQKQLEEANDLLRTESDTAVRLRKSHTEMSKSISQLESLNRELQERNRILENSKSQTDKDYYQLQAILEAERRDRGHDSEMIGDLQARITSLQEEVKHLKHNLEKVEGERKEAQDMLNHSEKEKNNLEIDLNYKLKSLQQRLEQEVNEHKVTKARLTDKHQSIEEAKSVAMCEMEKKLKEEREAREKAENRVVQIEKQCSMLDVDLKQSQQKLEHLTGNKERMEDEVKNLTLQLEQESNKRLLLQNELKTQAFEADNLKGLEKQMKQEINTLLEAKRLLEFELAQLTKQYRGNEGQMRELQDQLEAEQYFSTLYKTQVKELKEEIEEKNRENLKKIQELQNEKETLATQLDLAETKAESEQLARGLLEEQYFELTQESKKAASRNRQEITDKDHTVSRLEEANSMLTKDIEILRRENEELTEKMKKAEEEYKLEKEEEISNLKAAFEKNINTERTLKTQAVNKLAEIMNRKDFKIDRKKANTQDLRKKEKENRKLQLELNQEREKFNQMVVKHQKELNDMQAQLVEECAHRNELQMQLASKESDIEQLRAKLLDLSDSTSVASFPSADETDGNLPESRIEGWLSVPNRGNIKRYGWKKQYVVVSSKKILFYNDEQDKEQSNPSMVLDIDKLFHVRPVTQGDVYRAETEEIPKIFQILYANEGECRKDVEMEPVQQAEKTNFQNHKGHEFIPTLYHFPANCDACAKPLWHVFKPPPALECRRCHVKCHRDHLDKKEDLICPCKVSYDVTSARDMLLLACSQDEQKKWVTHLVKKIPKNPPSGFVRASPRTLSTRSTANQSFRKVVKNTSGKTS
Chain of Rho kinase 2 (ROCK2) (O75116 whole entry): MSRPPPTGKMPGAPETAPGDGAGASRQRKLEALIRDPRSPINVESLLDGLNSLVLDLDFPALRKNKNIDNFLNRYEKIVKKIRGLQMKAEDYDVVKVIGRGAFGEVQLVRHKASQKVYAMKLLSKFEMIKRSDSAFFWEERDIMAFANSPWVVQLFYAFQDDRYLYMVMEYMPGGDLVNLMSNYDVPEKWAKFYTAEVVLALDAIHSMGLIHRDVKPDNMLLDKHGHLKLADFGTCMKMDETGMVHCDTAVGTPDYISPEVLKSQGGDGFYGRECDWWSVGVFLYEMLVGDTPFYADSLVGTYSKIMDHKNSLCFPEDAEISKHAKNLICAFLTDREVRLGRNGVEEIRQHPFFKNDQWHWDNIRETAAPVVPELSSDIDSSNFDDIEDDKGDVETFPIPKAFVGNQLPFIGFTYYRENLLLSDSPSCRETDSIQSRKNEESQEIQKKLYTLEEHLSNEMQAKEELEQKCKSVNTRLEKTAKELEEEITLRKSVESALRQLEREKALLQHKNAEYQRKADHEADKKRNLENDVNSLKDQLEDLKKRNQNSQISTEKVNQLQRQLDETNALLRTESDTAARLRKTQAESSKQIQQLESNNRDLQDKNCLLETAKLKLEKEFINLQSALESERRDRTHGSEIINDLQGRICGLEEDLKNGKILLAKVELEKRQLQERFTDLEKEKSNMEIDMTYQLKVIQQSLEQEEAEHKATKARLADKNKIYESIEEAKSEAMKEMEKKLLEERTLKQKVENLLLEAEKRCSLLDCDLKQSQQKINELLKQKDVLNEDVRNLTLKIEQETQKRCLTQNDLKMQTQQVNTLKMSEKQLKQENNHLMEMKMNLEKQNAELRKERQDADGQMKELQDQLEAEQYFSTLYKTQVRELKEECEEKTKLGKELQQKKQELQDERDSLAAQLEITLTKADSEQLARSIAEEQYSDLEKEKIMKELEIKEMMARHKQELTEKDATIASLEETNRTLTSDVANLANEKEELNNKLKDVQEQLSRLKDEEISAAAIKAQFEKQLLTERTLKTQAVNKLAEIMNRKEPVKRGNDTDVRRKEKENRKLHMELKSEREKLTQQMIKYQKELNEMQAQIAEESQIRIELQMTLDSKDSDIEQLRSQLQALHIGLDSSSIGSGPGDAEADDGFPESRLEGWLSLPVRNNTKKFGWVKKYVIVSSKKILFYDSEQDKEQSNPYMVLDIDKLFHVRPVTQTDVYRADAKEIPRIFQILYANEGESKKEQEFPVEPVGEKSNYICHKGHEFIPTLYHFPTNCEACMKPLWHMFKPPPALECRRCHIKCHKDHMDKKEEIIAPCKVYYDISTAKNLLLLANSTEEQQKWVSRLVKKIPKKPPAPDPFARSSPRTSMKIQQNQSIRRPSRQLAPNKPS

The term Ki denotes the equilibrium dissociation constant of an inhibitor or competing ligand from its target. A low value points to tighter binding. For `NC(C(=O)Nc1ccccc1)c1ccc(Oc2ccnc3[nH]ccc23)cc1` (stereo not drawn) [Example 9, 2-(4-((1H-pyrrolo[2,3-b]pyridin-4-yl)oxy)phenyl)-2-amino-N-phenylacetamide], the Ki in experiment [1] and in experiment [2] was above 30 nM in each case.
Regarding `Cc1c[nH]c2nccc(Oc3ccc(CC(CN)C(=O)N4CCN(Cc5ccccc5)CC4)cc3)c12` (stereo not drawn) [Example 30, 3-amino-1-(4-benzylpiperazin-1-yl)-2-(4-((3-methyl-1H-pyrrolo[2,3-b]pyridin-4-yl)oxy)benzyl)propan-1-one], the Ki in experiment [1] and in experiment [2] was below 3 nM each time.
As to `Cc1c[nH]c2nccc(Oc3ccc([C@H]4CCN[C@@H]4C(=O)NCCc4ccccc4)cc3)c12` (racemic) [Example 22, rac-(2S,3R)-3-(4-((3-methyl-1H-pyrrolo[2,3-b]pyridin-4-yl)oxy)phenyl)-N-phenethylpyrrolidine-2-carboxamide], the Ki in experiment [1] and in experiment [2] was below 3 nM in each case.
For the compound `Cc1c[nH]c2nccc(Oc3ccc(C(CN)CC(=O)N4CCN(Cc5ccccc5)CC4)cc3)c12` (stereo not drawn) [Example 15, 4-amino-1-(4-benzylpiperazin-1-yl)-3-(4-((3-methyl-1H-pyrrolo[2,3-b]pyridin-4-yl)oxy)phenyl)butan-1-one], the Ki in experiment [1] and in experiment [2] was below 3 nM each time.
As to `Cc1c[nH]c2nccc(Oc3ccc([C@H]4CCN[C@@H]4C(=O)NCc4ccccc4)cc3)c12` (racemic) [Example 19, rac-(2S,3R)-N-benzyl-3-(4-((3-methyl-1H-pyrrolo[2,3-b]pyridin-4-yl)oxy)phenyl)pyrrolidine-2-carboxamide], the Ki in experiment [1] and in experiment [2] was below 3 nM in each case.
As to `NCC(Cc1ccc(Oc2ccnc3[nH]ccc23)cc1)C(=O)NC1CCOCC1` (stereo not drawn) [Example 34, 2-(4-((1H-pyrrolo[2,3-b]pyridin-4-yl)oxy)benzyl)-3-amino-N-(tetrahydro-2H-pyran-4-yl)propanamide], the inhibition constant Ki in experiment [1] and in experiment [2] was 3 to 30 nM each time.
In the case of `Cc1c[nH]c2nccc(Oc3ccc(C(N)CC(=O)N4CCN(Cc5ccccc5)CC4)cc3)c12` (stereo not drawn) [Example 7, 3-amino-1-(4-benzylpiperazin-1-yl)-3-(4-((3-methyl-1H-pyrrolo[2,3-b]pyridin-4-yl)oxy)phenyl)propan-1-one], the Ki in experiment [1] and in experiment [2] was below 3 nM each time.
With `Cc1c[nH]c2nccc(Oc3ccc(C4CC(=O)N(CCc5ccncc5)CN4)cc3)c12` (stereo not drawn) [Example 40, 6-(4-((3-methyl-1H-pyrrolo[2,3-b]pyridin-4-yl)oxy)phenyl)-3-(2-(pyridin-4-yl)ethyl)tetrahydropyrimidin-4(1H)-one], the Ki in experiment [1] and in experiment [2] was above 30 nM each time.
Regarding `Cc1c[nH]c2nccc(Oc3ccc(CC(CN)C(=O)NC4CCCCC4)cc3)c12` (stereo not drawn) [Example 31, 3-amino-N-cyclohexyl-2-(4-((3-methyl-1H-pyrrolo[2,3-b]pyridin-4-yl)oxy)benzyl)propanamide], the Ki in experiment [1] and in experiment [2] was below 3 nM in each case.
Consider `Cc1c[nH]c2nccc(Oc3ccc([C@H]4CCN[C@@H]4C(=O)NC4CCOCC4)cc3)c12` (racemic) [Example 24, rac-(2S,3R)-3-(4-((3-methyl-1H-pyrrolo[2,3-b]pyridin-4-yl)oxy)phenyl)-N-(tetrahydro-2H-pyran-4-yl)pyrrolidine-2-carboxamide], for which the Ki in experiment [1] and in experiment [2] was 3 to 30 nM in each case.
For the compound `Cc1cc2c(Oc3ccc(CC(CN)C(=O)N4CCN(Cc5ccccc5)CC4)cc3)ccnc2[nH]1` (stereo not drawn) [Example 6, 3-amino-1-(4-benzylpiperazin-1-yl)-2-(4-((2-methyl-1H-pyrrolo[2,3-b]pyridin-4-yl)oxy)benzyl)propan-1-one], the Ki in experiment [1] and in experiment [2] was above 30 nM in each case.
`Cc1c[nH]c2nccc(Oc3ccc([C@H]4CCN[C@@H]4C(=O)NCCOc4ccccc4)cc3)c12` (racemic) [Example 23, rac-(2S,3R)-3-(4-((3-methyl-1H-pyrrolo[2,3-b]pyridin-4-yl)oxy)phenyl)-N-(2-phenoxyethyl)pyrrolidine-2-carboxamide]: the Ki in experiment [1] and in experiment [2] was below 3 nM each time.
